Laboratory results taken from ChEMBL document CHEMBL2380203, “Structure-activity relationship of cytochrome bc1 reductase inhibitor broad spectrum antifungal ilicicolin H” (Bioorg Med Chem Lett, 2013).
Values after ≈ are worked out from the molar mass of the structure shown.

Legend:
[1] = Inhibition of rat liver NADH:cytochrome bc1 reductase
Candida albicans [2] = assay: Antifungal activity against Candida albicans MY1055 assessed as growth inhibition after 24 hrs by liquid microdilution assay; format: functional; details: MY1055, 24 h
[3] = Inhibition of Candida albicans MY1055 NADH:cytochrome bc1 reductase
[4] = Inhibition of Candida albicans MY1055 NADH:cytochrome bc1 reductase in presence of 40% mouse plasma; format: cell-free
Candida albicans [5] = assay: Ratio of MIC for Candida albicans MY1055 in presence of 10% mouse plasma to MIC for Candida albicans MY1055 in absence of mouse plasma; format: functional
Candida albicans [6] = assay: Antifungal activity against Candida albicans MY1055 assessed as growth inhibition after 24 hrs by liquid microdilution assay in presence of 10% mouse plasma; format: functional
Candida albicans [7] = assay: Ratio of IC50 for Candida albicans MY1055 NADH:cytochrome bc1 reductase in presence of 40% mouse plasma to IC50 for Candida albicans MY1055 NADH:cytochrome bc1 reductase in absence of mouse plasma

SMILES | IC50 [1] [ng/mL] | MIC (Candida albicans [2]) [ng/mL] | IC50 [3] [ng/mL] | IC50 [4] [ng/mL] | Ratio (Candida albicans [5]) | MIC (Candida albicans [6]) [ng/mL] | Ratio IC50 (Candida albicans [7])
C/C=C/[C@@H]1[C@H]2C[C@@H](C)CC[C@@H]2C(C)=C[C@H]1C(=O)c1c(O)c(-c2ccc(OCC)cc2)c[nH]c1=O | 1000 (≈ 2.17 µM) | > 5000 | 1000 (≈ 2.17 µM) |  |  |  | 
C/C=C/[C@@H]1[C@H]2C[C@@H](C)CC[C@@H]2C(C)=C[C@H]1C(=O)c1c(O)c(-c2ccc(OC(=O)CCCCNC(=O)OC(C)(C)C)cc2)c[nH]c1=O | > 1000 | 250 (≈ 0.395 µM) | 5 (≈ 0.0079 µM) |  |  |  | 
C/C=C/[C@@H]1[C@H]2C[C@@H](C)CC[C@@H]2C(C)=C[C@H]1C(=O)c1c(O)c(-c2ccc(OC(=O)C3CC3)cc2)c[nH]c1=O | > 800 | 62 (≈ 0.124 µM) | 15 (≈ 0.0299 µM) |  |  |  | 
C/C=C/[C@@H]1[C@H]2C[C@@H](C)CC[C@@H]2[C@](C)(I)[C@H]2Oc3ncc(-c4ccc(O)cc4)c(O)c3C(=O)[C@@H]12 | 1000 (≈ 1.79 µM) | > 5000 | 1000 (≈ 1.79 µM) |  |  |  | 
C/C=C/[C@@H]1[C@H]2C[C@@H](C)CC[C@@H]2C(C)=C[C@H]1C(=O)c1c(O)c(-c2ccc(OC(=O)/C=C/c3cnc[nH]3)cc2)c[nH]c1=O | 8 (≈ 0.0144 µM) | 31 (≈ 0.056 µM) | 1 (≈ 0.00181 µM) | 150 | 16 | 1000 | 43
C/C=C/[C@@H]1[C@H]2C[C@@H](COC(C)=O)CC[C@@H]2C(C)=C[C@H]1C(=O)c1c(O)c(-c2ccc(OC(C)=O)cc2)c[nH]c1=O | > 800 | 62 (≈ 0.116 µM) | 15 (≈ 0.0281 µM) | 100 | 8 | 1000 | 7
C/C=C/[C@@H]1[C@H]2C[C@@H](C)CC[C@@H]2[C@](C)(Cl)[C@H]2Oc3ncc(-c4ccc(O)cc4)c(O)c3C(=O)[C@@H]12 | 1000 (≈ 2.14 µM) | 5000 (≈ 10.7 µM) | 200 (≈ 0.427 µM) |  |  |  | 
C/C=C/[C@@H]1[C@H]2C[C@@H](C)CC[C@@H]2C(C)=C[C@H]1C(=O)c1c(O)c(-c2ccc(OC(=O)C3CCCCC3)cc2)c[nH]c1=O | > 1600 | > 1000 | 400 (≈ 0.736 µM) |  |  |  | 
C/C=C/[C@@H]1[C@H]2C[C@@H](C)CC[C@@H]2[C@](C)(Br)[C@H]2Oc3ncc(-c4ccc(O)cc4)c(O)c3C(=O)[C@@H]12 | 1000 (≈ 1.95 µM) | > 5000 | > 1000 |  |  |  | 
C/C=C/[C@@H]1[C@H]2C[C@@H](C)CC[C@@H]2C(C)=C[C@H]1C(=O)c1c(O)c(-c2ccc(OC(=O)c3ccsc3)cc2)c[nH]c1=O | > 1000 | 1000 (≈ 1.84 µM) | 5 (≈ 0.0092 µM) |  |  |  | 
C/C=C/[C@@H]1[C@H]2C[C@@H](C)CC[C@@H]2C(C)=C[C@H]1C(=O)c1c(O)c(-c2ccc(OC)cc2)c[nH]c1=O | 200 (≈ 0.447 µM) | 250 (≈ 0.559 µM) | 3 (≈ 0.0067 µM) |  |  |  | 
C/C=C/[C@@H]1[C@H]2C[C@@H](C)CC[C@@H]2C(C)=C[C@H]1C(=O)c1c(O)c(-c2ccc(OCC(=O)OC(C)(C)C)cc2)cn(CC(=O)OC(C)(C)C)c1=O | 1600 (≈ 2.42 µM) | > 5000 | > 1600 |  |  |  | 
C/C=C/[C@@H]1[C@H]2C[C@@H](C)CC[C@@H]2[C@](C)(Br)[C@H]2Oc3ncc(-c4ccc(O)c(Br)c4Br)c(O)c3C(=O)[C@@H]12 | 1000 (≈ 1.49 µM) | > 5000 | 1000 (≈ 1.49 µM) |  |  |  | 
C/C=C/[C@@H]1[C@H]2C[C@@H](C)CC[C@@H]2C(C)=C[C@H]1C(=O)c1c(O)c(-c2ccc(OC(=O)CCCCN)cc2)c[nH]c1=O | 40 (≈ 0.0751 µM) | 31 (≈ 0.0582 µM) | 0.1 (≈ 0.000188 µM) | 30 |  |  | 300
C/C=C/[C@@H]1[C@H]2C[C@@H](COC(=O)C3CC3)CC[C@@H]2C(C)=C[C@H]1C(=O)c1c(O)c(-c2ccc(O)cc2)c[nH]c1=O | 40 (≈ 0.0773 µM) | 31.3 (≈ 0.0605 µM) | 1.2 (≈ 0.00232 µM) | 40 | 8 | 250 | 20
C/C=C/[C@@H]1[C@H]2C[C@@H](C)CC[C@@H]2C(C)=C[C@H]1C(=O)c1c(O)c(-c2ccc(OC(=O)c3ccccc3)cc2)c[nH]c1=O | 1000 (≈ 1.86 µM) | 1000 (≈ 1.86 µM) | 8 (≈ 0.0149 µM) |  |  |  | 
C/C=C/[C@@H]1[C@H]2C[C@@H](C)CC[C@@H]2C(C)=C[C@H]1C(=O)c1c(O)c(-c2ccc(OC(=O)C3CCC3)cc2)c[nH]c1=O | > 800 | 62 (≈ 0.12 µM) | 2 (≈ 0.00388 µM) |  |  |  | 
C/C=C/[C@@H]1[C@H]2C[C@@H](C)CC[C@@H]2C(C)=C[C@H]1C(=O)c1c(O)c(-c2ccc(OCC(=O)O)cc2)cn(CC(=O)O)c1=O | 1000 (≈ 1.82 µM) | > 5000 | > 1000 |  |  |  | 
